Measured values published in PubChem BioAssay AID1963845 (Molecular Pharmacology Branch, DTP, NCI, 2024).

Tested on: 429239-143-T-J1-PDC complex spheroid viability
Assay: Anticancer human tumor 429239-143-T-J1-PDC patient-derived small cell lung carcinoma cell line growth inhibition [POLQ]
Conditions: for IC50: curve of first compound; for viability, T/C: stronger effect = lower value
How it was run: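 PDC + HUVEC + MSC complex spheroids; POLQ inhibitors ± partner drugs; top conc. at/near clinical Cmax, else 10 microM (SN-38 1 microM), half-log dilutions; 37 degrees C, 5% CO2.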

[1] = second compound 0.0316 µM, first compound 0.0316 µM
[2] = second compound 0.0316 µM, first compound 0.1 µM
[3] = second compound 0.0316 µM, first compound 0.316 µM
[4] = second compound 0.0316 µM, first compound 1 µM
[5] = second compound 0.1 µM, first compound 0.0316 µM
[6] = second compound 0.1 µM, first compound 0.1 µM
[7] = second compound 0.1 µM, first compound 0.316 µM
[8] = second compound 0.1 µM, first compound 1 µM
[9] = second compound 0.316 µM, first compound 0.0316 µM
[10] = second compound 0.316 µM, first compound 0.1 µM
[11] = second compound 0.316 µM, first compound 0.316 µM
[12] = second compound 0.316 µM, first compound 1 µM
[13] = second compound 1 µM, first compound 0.0316 µM
[14] = second compound 1 µM, first compound 0.1 µM
[15] = second compound 1 µM, first compound 0.316 µM
[16] = second compound 1 µM, first compound 1 µM
[17] = second compound 3.16 µM, first compound 0.0316 µM
[18] = second compound 3.16 µM, first compound 0.1 µM
[19] = second compound 3.16 µM, first compound 0.316 µM
[20] = second compound 3.16 µM, first compound 1 µM
[21] = second compound 10 µM, first compound 0.0316 µM
[22] = second compound 10 µM, first compound 0.1 µM
[23] = second compound 10 µM, first compound 0.316 µM
[24] = second compound 10 µM, first compound 1 µM
[25] = second compound 0.0316 µM, first compound 3.16 µM
[26] = second compound 0.0316 µM, first compound 10 µM
[27] = second compound 0.1 µM, first compound 3.16 µM
[28] = second compound 0.1 µM, first compound 10 µM
[29] = second compound 0.316 µM, first compound 3.16 µM
[30] = second compound 0.316 µM, first compound 10 µM
[31] = second compound 1 µM, first compound 3.16 µM
[32] = second compound 1 µM, first compound 10 µM
[33] = second compound 3.16 µM, first compound 3.16 µM
[34] = second compound 3.16 µM, first compound 10 µM
[35] = second compound 10 µM, first compound 3.16 µM
[36] = second compound 10 µM, first compound 10 µM
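Further: luminescence signal used as surrogate measure of viable cells; spheroids exposed to compounds for seven days before readout.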
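Wherever viability, T/C is given: 100% = DMSO vehicle control viability as luminescence relative to vehicle.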

`CCc1c2c(nc3ccc(O)cc13)-c1cc3c(c(=O)n1C2)COC(=O)[C@]3(O)CC` + Cc1cccc(N(C)C(=O)C2C(O)CCN2c2nc(C)cc(C(F)(F)F)c2C#N)c1 gave an IC50 (second compound 0.0316 µM) of under 3.16 nM, an IC50 (second compound 0.1 µM) of under 3.16 nM and an IC50 (second compound 0.316 µM) of under 3.16 nM. The IC50 (second compound 1 µM) was under 3.16 nM, the IC50 (second compound 3.16 µM) was under 3.16 nM and the IC50 (second compound 10 µM) was under 3.16 nM. It also gave a viability, T/C (second compound 0.0316 µM, first compound 0.00316 µM) of 16.9%, a viability, T/C (second compound 0.0316 µM, first compound 0.01 µM) of 17.8% and a viability, T/C [1] of 16.1%. The viability, T/C [2] was 17.5%, the viability, T/C [3] was 13.3% and the viability, T/C [4] was 5.41%. For the same molecule, the viability, T/C (second compound 0.1 µM, first compound 0.00316 µM) was 17.8%, the viability, T/C (second compound 0.1 µM, first compound 0.01 µM) was 18.5% and the viability, T/C [5] was 17.6%. It also gave a viability, T/C [6] of 19%, a viability, T/C [7] of 13.6% and a viability, T/C [8] of 4.17%. For the same molecule, the viability, T/C (second compound 0.316 µM, first compound 0.00316 µM) was 16.2%, the viability, T/C (second compound 0.316 µM, first compound 0.01 µM) was 20.4% and the viability, T/C [9] was 16.4%. It also gave a viability, T/C [10] of 17.6%, a viability, T/C [11] of 14.1% and a viability, T/C [12] of 6.26%. It also gave a viability, T/C (second compound 1 µM, first compound 0.00316 µM) of 21.1%, a viability, T/C (second compound 1 µM, first compound 0.01 µM) of 16.7% and a viability, T/C [13] of 17.5%. The viability, T/C [14] was 16.5%, the viability, T/C [15] was 17.5% and the viability, T/C [16] was 3.94%. The viability, T/C (second compound 3.16 µM, first compound 0.00316 µM) was 19.9%, the viability, T/C (second compound 3.16 µM, first compound 0.01 µM) was 17.4% and the viability, T/C [17] was 21.6%. The viability, T/C [18] was 16.1%, the viability, T/C [19] was 14.9% and the viability, T/C [20] was 5.15%. It also gave a viability, T/C (second compound 10 µM, first compound 0.00316 µM) of 18.9%, a viability, T/C (second compound 10 µM, first compound 0.01 µM) of 17.5% and a viability, T/C [21] of 20.7%. The viability, T/C [22] was 17.5%, the viability, T/C [23] was 17.9% and the viability, T/C [24] was 3.41%.
For `C=CC(=O)N1CCN(c2nc(=O)n(-c3c(C)ccnc3C(C)C)c3nc(-c4c(O)cccc4F)c(F)cc23)C(C)C1` (stereo unspecified) + Cc1cccc(N(C)C(=O)C2C(O)CCN2c2nc(C)cc(C(F)(F)F)c2C#N)c1, the IC50 (second compound 0.0316 µM) was over 10000 nM, the IC50 (second compound 0.1 µM) was over 10000 nM and the IC50 (second compound 0.316 µM) was over 10000 nM. For the same molecule, the IC50 (second compound 1 µM) was over 10000 nM, the IC50 (second compound 3.16 µM) was over 10000 nM and the IC50 (second compound 10 µM) was over 10000 nM. It also gave a viability, T/C [1] of 97.2%, a viability, T/C [2] of 85% and a viability, T/C [3] of 102%. The viability, T/C [4] was 97.5%, the viability, T/C [25] was 96% and the viability, T/C [26] was 98.7%. The viability, T/C [5] was 93.2%, the viability, T/C [6] was 96.8% and the viability, T/C [7] was 108%. The viability, T/C [8] was 89.8%, the viability, T/C [27] was 92.9% and the viability, T/C [28] was 109%. For the same molecule, the viability, T/C [9] was 105%, the viability, T/C [10] was 94.3% and the viability, T/C [11] was 107%. For the same molecule, the viability, T/C [12] was 97.8%, the viability, T/C [29] was 108% and the viability, T/C [30] was 116%. The viability, T/C [13] was 88.8%, the viability, T/C [14] was 93.4% and the viability, T/C [15] was 104%. It also gave a viability, T/C [16] of 88.5%, a viability, T/C [31] of 103% and a viability, T/C [32] of 104%. The viability, T/C [17] was 95.5%, the viability, T/C [18] was 88% and the viability, T/C [19] was 86.6%. For the same molecule, the viability, T/C [20] was 101%, the viability, T/C [33] was 104% and the viability, T/C [34] was 122%. It also gave a viability, T/C [21] of 98.8%, a viability, T/C [22] of 85.3% and a viability, T/C [23] of 94.4%. It also gave a viability, T/C [24] of 97.9%, a viability, T/C [35] of 102% and a viability, T/C [36] of 100%.
Work on `COc1cccc2c1C(=O)c1c(O)c3c(c(O)c1C2=O)CC(O)(C(=O)CO)CC3OC1CC(N)C(O)C(C)O1` (stereo unspecified) + Nc1ccc(C#CCN(C(=O)Cc2ncc(C(F)(F)F)cc2C(F)(F)F)c2ccc(F)cc2)nn1 yielded an IC50 (second compound 0.0316 µM) of 75.7 nM, an IC50 (second compound 0.1 µM) of 81.6 nM and an IC50 (second compound 0.316 µM) of 109 nM. The IC50 (second compound 1 µM) was 73.9 nM, the IC50 (second compound 3.16 µM) was 70 nM and the IC50 (second compound 10 µM) was 67.9 nM. It also gave a viability, T/C [1] of 85.2%, a viability, T/C [2] of 38.8% and a viability, T/C [3] of 5.33%. It also gave a viability, T/C [4] of 1.05%, a viability, T/C [25] of 0.09% and a viability, T/C [26] of 0.32%. The viability, T/C [5] was 83.5%, the viability, T/C [6] was 42.8% and the viability, T/C [7] was 7.41%. For the same molecule, the viability, T/C [8] was 0.82%, the viability, T/C [27] was 0.06% and the viability, T/C [28] was 0.05%. The viability, T/C [9] was 87.3%, the viability, T/C [10] was 53.6% and the viability, T/C [11] was 6.68%. It also gave a viability, T/C [12] of 0.74%, a viability, T/C [29] of 0.05% and a viability, T/C [30] of 0.19%. It also gave a viability, T/C [13] of 83.1%, a viability, T/C [14] of 38.2% and a viability, T/C [15] of 5.31%. For the same molecule, the viability, T/C [16] was 0.69%, the viability, T/C [31] was 0.1% and the viability, T/C [32] was 0.83%. The viability, T/C [17] was 83.9%, the viability, T/C [18] was 34.8% and the viability, T/C [19] was 5.88%. The viability, T/C [20] was 0.94%, the viability, T/C [33] was 1.4% and the viability, T/C [34] was 0.16%. The viability, T/C [21] was 80.7%, the viability, T/C [22] was 34.4% and the viability, T/C [23] was 5.07%. It also gave a viability, T/C [24] of 0.55%, a viability, T/C [35] of 1.2% and a viability, T/C [36] of 0.18%.
